Test results: PubChem BioAssay (NCI)
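A five-concentration, 48-hour dose response in 96-well plates underlies each endpoint, interpolated linearly between surrounding concentrations. TGI denotes the concentration required for complete inhibition of growth.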

What was measured:
Assay in all cases: growth of human tumour cells (NCI), 48 h
T-47D breast = test system: T-47D breast
CCRF-CEM leukemia = test system: CCRF-CEM leukemia
IGROV1 ovarian = test system: IGROV1 ovarian
MDA-N = test system: MDA-N
CAKI-1 renal = test system: CAKI-1 renal
A498 renal = test system: A498 renal
HS 578T breast = test system: HS 578T breast
M14 melanoma = test system: M14 melanoma
TK-10 renal = test system: TK-10 renal
MCF7 breast = test system: MCF7 breast
786-0 renal = test system: 786-0 renal

N#Cc1c(-c2ccco2)c2c(n(C3OC(CO)C(O)C(O)C3O)c1=S)CCCC2 (stereo unspecified)
TGI (T-47D breast): > 100 µM
TGI (CCRF-CEM leukemia): > 100 µM
TGI (IGROV1 ovarian): > 100 µM
TGI (MDA-N): > 100 µM
TGI (CAKI-1 renal): > 100 µM
TGI (A498 renal): > 100 µM
TGI (HS 578T breast): > 100 µM
TGI (M14 melanoma): > 100 µM
TGI (TK-10 renal): > 100 µM
TGI (MCF7 breast): > 100 µM
TGI (786-0 renal): > 100 µM

CCOC(=O)c1cc2cc(Cc3ccc4[nH]c(C(=O)OCC)cc4c3)ccc2[nH]1
TGI (T-47D breast): > 100 µM
TGI (CCRF-CEM leukemia): > 100 µM
TGI (IGROV1 ovarian): 35.7 µM
TGI (MDA-N): > 100 µM
TGI (CAKI-1 renal): 34.3 µM
TGI (A498 renal): 36.4 µM
TGI (HS 578T breast): 72.8 µM
TGI (M14 melanoma): > 100 µM
TGI (TK-10 renal): 31.4 µM
TGI (MCF7 breast): > 100 µM
TGI (786-0 renal): 13 µM

C[N+]1(C)C2Cc3ccccc3C1Cc1ccccc12
TGI (T-47D breast): > 100 µM
TGI (CCRF-CEM leukemia): > 100 µM
TGI (IGROV1 ovarian): > 100 µM
TGI (MDA-N): > 100 µM
TGI (A498 renal): > 100 µM
TGI (HS 578T breast): > 100 µM
TGI (M14 melanoma): > 100 µM
TGI (TK-10 renal): > 100 µM
TGI (MCF7 breast): > 100 µM
TGI (786-0 renal): > 100 µM

COc1ccc(C2SCC(=O)N2N=C2NC(=O)CC(=O)N2)cc1 (stereo unspecified)
TGI (T-47D breast): > 100 µM
TGI (CCRF-CEM leukemia): > 100 µM
TGI (IGROV1 ovarian): > 100 µM
TGI (MDA-N): > 100 µM
TGI (CAKI-1 renal): > 100 µM
TGI (A498 renal): > 100 µM
TGI (HS 578T breast): > 100 µM
TGI (M14 melanoma): > 100 µM
TGI (TK-10 renal): > 100 µM
TGI (MCF7 breast): > 100 µM
TGI (786-0 renal): > 100 µM

CCC1(O)C=CC(=O)C=C1
TGI (T-47D breast): 67.7 µM
TGI (CCRF-CEM leukemia): > 100 µM
TGI (IGROV1 ovarian): 40.6 µM
TGI (MDA-N): > 100 µM
TGI (CAKI-1 renal): > 100 µM
TGI (A498 renal): 67.9 µM
TGI (HS 578T breast): > 100 µM
TGI (M14 melanoma): 40.4 µM
TGI (TK-10 renal): 45.6 µM
TGI (MCF7 breast): > 100 µM
TGI (786-0 renal): 39.2 µM

CC1C(c2ccc(N(C)C)cc2)c2cc3c(cc2OC1N1CCCC1)OCO3 (stereo unspecified)
TGI (T-47D breast): > 100 µM
TGI (CCRF-CEM leukemia): > 100 µM
TGI (IGROV1 ovarian): > 100 µM
TGI (MDA-N): 46.9 µM
TGI (CAKI-1 renal): > 100 µM
TGI (A498 renal): 72.3 µM
TGI (HS 578T breast): 78 µM
TGI (M14 melanoma): > 100 µM
TGI (TK-10 renal): > 100 µM
TGI (MCF7 breast): > 31.6 µM
TGI (786-0 renal): > 100 µM

CCOC(=O)CC(C)C(C#N)(OP1(=O)OC(c2ccccc2)C(C)N1C)c1ccccc1 (stereo unspecified)
TGI (T-47D breast): > 100 µM
TGI (CCRF-CEM leukemia): > 100 µM
TGI (IGROV1 ovarian): > 100 µM
TGI (MDA-N): > 100 µM
TGI (CAKI-1 renal): > 100 µM
TGI (A498 renal): > 100 µM
TGI (HS 578T breast): > 100 µM
TGI (M14 melanoma): > 100 µM
TGI (TK-10 renal): > 100 µM
TGI (MCF7 breast): > 100 µM
TGI (786-0 renal): > 100 µM

O=C(Cc1ccc(Cl)c(Cl)c1)NCCCN1CCN(CCCN2CCCCC2)CC1
TGI (T-47D breast): 44.4 µM
TGI (CCRF-CEM leukemia): 34 µM
TGI (IGROV1 ovarian): 75 µM
TGI (MDA-N): 6.31 µM
TGI (CAKI-1 renal): 41.3 µM
TGI (A498 renal): 31 µM
TGI (HS 578T breast): > 100 µM
TGI (M14 melanoma): 43.1 µM
TGI (TK-10 renal): 32.3 µM
TGI (MCF7 breast): 34.2 µM
TGI (786-0 renal): 31.7 µM

O=S(=O)(O)c1ccc(NN(c2c(O)ccc3ccccc23)S(=O)(=O)O)cc1
TGI (T-47D breast): > 100 µM
TGI (CCRF-CEM leukemia): > 100 µM
TGI (IGROV1 ovarian): > 100 µM
TGI (MDA-N): > 100 µM
TGI (CAKI-1 renal): > 100 µM
TGI (A498 renal): > 100 µM
TGI (HS 578T breast): > 100 µM
TGI (M14 melanoma): > 100 µM
TGI (TK-10 renal): > 100 µM
TGI (MCF7 breast): > 100 µM
TGI (786-0 renal): > 100 µM

Oc1c(OCc2nnc(CCCCCCCCc3nnc(COc4ccc5ccccc5c4O)n3Nc3ccccc3)n2Nc2ccccc2)ccc2ccccc12
TGI (T-47D breast): > 100 µM
TGI (IGROV1 ovarian): 31.5 µM
TGI (MDA-N): 12.8 µM
TGI (CAKI-1 renal): 13.8 µM
TGI (A498 renal): 34.3 µM
TGI (HS 578T breast): 22.2 µM
TGI (M14 melanoma): 10.9 µM
TGI (TK-10 renal): > 64.7 µM
TGI (MCF7 breast): 68.1 µM
TGI (786-0 renal): 27.4 µM

O=c1cnn(C2OC(CO)C(O)C(F)C2O)c(=O)[nH]1 (stereo unspecified)
TGI (T-47D breast): > 100 µM
TGI (CCRF-CEM leukemia): > 100 µM
TGI (IGROV1 ovarian): > 100 µM
TGI (MDA-N): > 100 µM
TGI (CAKI-1 renal): > 100 µM
TGI (A498 renal): > 100 µM
TGI (HS 578T breast): > 100 µM
TGI (M14 melanoma): > 100 µM
TGI (TK-10 renal): > 100 µM
TGI (MCF7 breast): > 100 µM
TGI (786-0 renal): > 100 µM

c1cc(-c2cscc2-c2ccsc2)cs1
TGI (T-47D breast): > 100 µM
TGI (CCRF-CEM leukemia): > 100 µM
TGI (IGROV1 ovarian): > 100 µM
TGI (MDA-N): > 100 µM
TGI (CAKI-1 renal): > 100 µM
TGI (A498 renal): > 100 µM
TGI (HS 578T breast): 64.2 µM
TGI (M14 melanoma): > 100 µM
TGI (TK-10 renal): > 100 µM
TGI (MCF7 breast): > 100 µM
TGI (786-0 renal): > 100 µM

COc1ccc(CN2C(=O)CCC/C=C\[C@H]2CI)cc1
TGI (T-47D breast): 6.69 µM
TGI (IGROV1 ovarian): 29 µM
TGI (MDA-N): 25.8 µM
TGI (CAKI-1 renal): 21.9 µM
TGI (A498 renal): 25 µM
TGI (HS 578T breast): 33.2 µM
TGI (M14 melanoma): 22.6 µM
TGI (TK-10 renal): 25 µM
TGI (MCF7 breast): 22.5 µM
TGI (786-0 renal): 27 µM

NC1=CN(CCCO)C2=N/C(=C\c3ccco3)C(=O)N12
TGI (T-47D breast): > 100 µM
TGI (CCRF-CEM leukemia): > 100 µM
TGI (IGROV1 ovarian): > 100 µM
TGI (MDA-N): > 100 µM
TGI (CAKI-1 renal): > 100 µM
TGI (A498 renal): > 100 µM
TGI (HS 578T breast): > 100 µM
TGI (M14 melanoma): > 100 µM
TGI (TK-10 renal): > 100 µM
TGI (MCF7 breast): > 100 µM
TGI (786-0 renal): > 100 µM
